# System: HIV-1 (NL4-3 RLuc reporter virus in MT-2 cells)
# Experiment: Inhibition of HIV-1 replication, MT-2 spreading infection assay
# Format: cell-based
# Conditions: Human immunodeficiency virus 1, NL43, MT2, 96 h, read-out: HIV activity (μM)
# Experimental: Inhibition of HIV-1 viral replication was assayed in a spreading infection using MT-2 cells and NL4-3 RLuc reporter virus. For dose-response curves, compounds were initially diluted with DMSO to 100-fold the starting concentration in a 96-well plate and subjected to a series of 3-fold dilutions in DMSO for a total of eight or nine dilutions. If a single compound concentration was tested, the compound was diluted to 100-fold the desired concentration in DMSO. Compounds were then diluted 50-fold with infection media prepared by diluting NL4-3 RLuc virus stock to 400 IU/100 ul with complete RPMI. Then, 100 ul of 50-fold-diluted compound was transferred to 20,000 MT-2 cells that were preceded in 96-well plates in 100 ul of complete RPMI for a final volume of 200 ul, followed by incubation at 37° C. for 96 h. The final MOI in infected plates was 0.02, and the final DMSO concentration in all wells was 1%. All assays were run with three replicates. For each replicate, one well received DMSO only, and one well received medium only for normalization and background correction. […] Plates were read on a luminescence plate reader (Synergy H1; BioTek Instruments, Inc.).
row,Compound,IC50 [µM]
1,"CCC1Cc2cc(OCc3ccccc3)c(OC)cc2C(/C=C/c2cc3c(cc2C)OCO3)N1 (stereo not drawn) [Compound 24, 6-Benzyloxy-7-methoxy-3-ethyl-1-[(E)-2-(6-methyl-1,3-benzodioxol-5-yl)vinyl]-1,2,3,4-tetrahydroisoquinoline]",0.5
2,"COc1cc2c(cc1OCc1ccccc1)C(C)CNC2/C=C/c1cc2c(cc1C)OCO2 (stereo not drawn) [Compound 12, 6-Benzyloxy-7-methoxy-4-methyl-1-[(E)-2-(6-methyl-1,3-benzodioxol-5-yl)vinyl]-1,2,3,4-tetrahydroisoquinoline]",1.4
3,"COc1cc2c(cc1OCc1ccccc1)CCN(O)C2/C=C/c1cc2c(cc1C)OCO2 (stereo not drawn) [Compound 36, 6-benzyloxy-2-hydroxy-7-methoxy-1-[(E)-2-(6-methyl-1,3-benzodioxol-5-yl)vinyl]-3,4-dihydro-1H-isoquinoline]",0.053
4,"COc1c(OCc2ccccc2)cc2c(c1OC)C(/C=C/c1cc3c(cc1C)OCO3)NCC2 (stereo not drawn) [Compound 10, 6-benzyloxy-7,8-dimethoxy-1-[(E)-2-(6-methyl-1,3-benzodioxol-5-yl)vinyl]-1,2,3,4-tetrahydroisoquinoline]",2.5
5,COc1cc2c(cc1OCc1ccccc1)C(Cl)CNC2/C=C/c1cc2c(cc1C)OCO2 (stereo not drawn) [Compound 61],2.5
6,"COc1cc2c(c(OC)c1OCc1ccccc1)CCNC2/C=C/c1cc2c(cc1C)OCO2 (stereo not drawn) [Compound 6, 6-benzyloxy-5,7-dimethoxy-1-[(E)-2-(6-methyl-1,3-benzodioxol-5-yl)vinyl]-1,2,3,4-tetrahydroisoquinoline]",0.37

# Source: patent US12024521B2, “Isoquinoline derivatives, methods of synthesis and uses thereof” (priority 2020, dated 2024)
